Where two headings read alike, the source gives them in different places. Positions of bridges follow the written chain, without caps; N, C: chain ends. Non-standard residues stand in square brackets, D forms with d. Residues, ends and D or L forms follow the SMILES beside them. *: point of attachment. dAoc(2) = CCCCCC[C@@H](N)C(=O)O; X1 = CC[C@H](C)CCCCC(=O)*; Heptanoyl = CCCCCCC(=O)*; Nle = CCCC[C@H](N)C(=O)O; Dab = NCC[C@H](N)C(=O)O
Columns and labels:
[1] = system: Escherichia coli ATTC 25922; type: cell-based
[2] = system: Pseudomonas aeruginosa ATTC 27853; type: cell-based
[3] = system: Staphylococcus aureus ATTC 25923; type: cell-based
[4] = system: fresh rabbit erythrocytes; test: Hemolysis assay; type: cell-based; details: 335 μM lipopeptide, 1 h at 37 °C, 10 mM Tris 80 mM NaCl pH 7.4, absorbance 540 nm, average of three independent experiments
Description: Hemolytic activity was evaluated on fresh rabbit erythrocytes collected in EDTA collection tubes, as previously described. Briefly, an erythrocite suspension in buffer (10 mM Tris, 80 mM NaCl pH 7.4) was obtained by centrifugation (three times, 10 min at 4000 rpm) and adjusted at an optical density of 1 at 540 nm. Aliquots of 200 µL were incubated for 1 h at 37 °C with the different lipopeptides in 96-well polypropylene microtiter plates and centrifuged (15 min, 5000 rpm). Lipopetide-induced hemolysis was determined by measuring the absorbance at 540 nm of released hemoglobin (Asample) in the supernatant. Each determination was done by triplicate, and as negative and positive controls, erythrocytes in buffer (A0%) and in distilled water (A100%) were employed, respectively. Hemolysis was calculated according the following equation: % hemolysis = 100 · (Asample − A0%/A100% − A0%).

[5] = Kinetics of insertion into monolayers; type: binding, Salmonella enterica serotype Minnesota Re 595; details: initial pressure 32 mN·m^−1, peptide 0.48 μM, 25 min after injection, 10 mM Tris pH 7.4, 25 °C, average of three independent experiments (error < 10%)
[6] = Kinetics of insertion into monolayers; type: binding; details: 25 min after injection, 10 mM Tris pH 7.4, 25 °C, average of three independent experiments (error < 10%); for Increase in surface pressure (Δπ), POPE/POPG: POPE/POPG 6:4, initial pressure 32 mN·m^−1, peptide 0.48 μM
[7] = FRET lipid mixing (NBD-PE/Rh-PE); details: 1:1 vesicles with 0.6% NBD-PE or Rh-PE, total lipid 107 μM, 25 °C, 10 mM Tris pH 7.4
Description: (§1) Large unilamellar vesicles (LUVs) of POPG, POPE/POPG (6:4), or POPC, alone or with the fluorescently labeled phospholipids NBD-PE or Rh-PE, were prepared by the evaporation of a mixture of the lipids and probes in CHCl3. The solvent was removed by a gentle stream of nitrogen gas followed by overnight storage under vacuum. The dried films were hydrated with Tris 10 mM pH 7.4 to the desired final lipid concentration and then sonicated in a bath type sonicator (Lab Supplies, Hickesville, NY, Model G112SPIT) until a clear dispersion was obtained (typically 3–5 min). […] The average diameter was determined by dynamic light scattering with a Malvern II-C Autosizer, with a z-diameter between 111 and 117 nm, and a polydispersity of 0.1. […] Moreover, they contained 0.2% Rh-PE for monitoring the fluorescence before and after the separation of the unencapsulated material, which was carried out by gel filtration on a Sephadex G-50 column eluted with 10 mM Tris 80 mM NaCl. In this way, the final lipid concentration was calculated taking into account the loss of lipid and the dilution of the sample.
Peptide-induced lipid mixing of vesicles of different composition was investigated in the same spectrofluorimeter, measuring the increase in fluorescence resonance energy transfer (FRET) from an NBD-PE donor population to an Rh-PE acceptor population. […]

ANTS/DPX vesicle leakage = details: 0.9 µM peptide (0.8% peptide mol fraction), lipid 107 µM, 25 °C, 10 mM Tris pH 7.4, ANTS fluorescence
Description: as §1
To assess the leakage of co-encapsulated ANTS and DPX vesicles due to their interaction with peptides, fluorescence measurements were carried out at 25 °C in 1.5 mL 10 mM Tris buffer pH 7.4 on a SLM-Aminco AB-2 spectrofluorimeter with constant stirring. […]

P. aeruginosa = test: Transmission electron microscopy of treated bacteria; type: cell-based, Pseudomonas aeruginosa; details: 1xMIC, 2 h, room temperature, tryptone water
Description: (§2) Then, 500 µL of this culture were added to 50 mL of tryptone water for a concentration of ≈10^8 bacteria·mL^−1. Aliquots of 10 mL were incubated with the lipopeptide at the desired concentration for 2 h at room temperature, and bacterial cells were collected by centrifugation (12,857 g, 20 min). Samples were fixed with 2.5% glutaraldehyde in phosphate buffer for 2 h at 4 °C, washed with the same buffer, and post fixed with 1% osmium tetroxide in buffer containing 0.8% potassium ferricyanide at 4 °C. Then, the samples were dehydrated for 1 h in acetone, infiltrated in a graded series of Epon resin (Ted pella, Inc., Redding, CA, USA) during 2 days, and finally embedded in fresh Epon resin and polymerized at 60 °C during 48 h. Ultrathin sections were obtained using a Leica Ultracut UCT ultramicrotome (Leica, Vienna, Austria) and mounted on Formvar-coated copper grids. Sections were stained with 2% aqueous uranyl acetate and lead citrate and examined in a JEM-1010 electron microscope (Jeol, Tokyo, Japan).

E. coli = test: as above; type: cell-based, Escherichia coli; details: 1xMIC, 2 h, room temperature, tryptone water
Description: as §2

[8] = broth microdilution, MHB, 5 × 10^5 CFU/mL, overnight 37 °C, triplicate, higher of the three
[9] = value in brackets, broth microdilution, MHB, overnight 37 °C, triplicate
[10] = initial pressure 32 mN·m^−1, peptide 0.48 μM

CC[C@H](C)CCCCC(=O)N[C@@H](CCN)C(=O)N[C@H](C(=O)N[C@@H](CCN)C(=O)N[C@H]1CCNC(=O)[C@H]([C@@H](C)O)NC(=O)[C@H](CCN)NC(=O)[C@H](CCN)NC(=O)[C@H](CC(C)C)NC(=O)[C@@H](CC(C)C)NC(=O)[C@H](CCN)NC1=O)[C@@H](C)O [PxE, Polymyxin E, reference compound] (X1-[Dab]T[Dab][Dab][Dab][dL]L[Dab][Dab]T; lactam 4-C)
MIC EC [1, 8]: 1 µg/mL
MIC EC [1, 9]: 0.86 µM
MIC PA [2, 8]: 0.5 µg/mL
MIC PA [2, 9]: 0.43 µM
MIC SA [3, 8]: > 32 µg/mL
MIC SA [3, 9]: > 27 µM
hemolysis [4]: 13%
Increase in surface pressure (Δπ), LPS [5]: 11.1 mN·m^−1
Increase in surface pressure (Δπ), POPE/POPG [6]: 7.9 mN·m^−1
Increase in surface pressure (Δπ), POPC [6, 10]: 0.8 mN·m^−1
Increase in surface pressure (Δπ), POPG [6, 10]: 5.3 mN·m^−1
lipid mixing (increase in FRET) [7]: no representative changes

CCCCCCC(=O)N[C@@H](CCN)C(=O)N[C@H](C(=O)N[C@@H](CCN)C(=O)N[C@H]1CSSC[C@H](C(N)=O)NC(=O)[C@H](CCN)NC(=O)[C@H](CCN)NC(=O)[C@H](CCCC)NC(=O)[C@@H](CCCCCC)NC(=O)[C@H](CCN)NC1=O)[C@@H](C)O [spE-10] (Heptanoyl-[Dab]T[Dab]C[Dab][dAoc(2)][Nle][Dab][Dab][dC]-NH2; disulfide 4-10)
MIC EC ([1]; ATTC 25922): 6.7 µM
MIC EC [1, 8]: 8 µg/mL
MIC PA ([2]; ATTC 27853): 0.84 µM
MIC PA [2, 8]: 1 µg/mL
MIC SA ([3]; ATTC 25923): > 27 µM
MIC SA [3, 8]: > 32 µg/mL
Increase in surface pressure (Δπ), LPS [5]: 14.8 mN·m^−1
Increase in surface pressure (Δπ), POPE/POPG [6]: 8.2 mN·m^−1
Increase in surface pressure (Δπ), POPC [6, 10]: 1.8 mN·m^−1
leakage from PE/PG vesicles (ANTS/DPX vesicle leakage): no detectable leakage
ultrastructural effect on P. aeruginosa (TEM) (P. aeruginosa): significant rupture of the cell membranes and cytoplasmic clear zones
ultrastructural effect on E. coli (TEM) (E. coli): formation of intracellular membranous structures and cytoplasmic clear zones

From paper PMC8708274, “Unveiling the Membrane and Cell Wall Action of Antimicrobial Cyclic Lipopeptides: Modulation of the Spectrum of Activity” (Pharmaceutics, 2021)
